This note sets out measurements from the OPERA property sets (Mansouri et al. 2018).

In general, melting point refers to the temperature of the solid-liquid transition. In the case of `O=C1c2ccccc2C(=O)c2c(Cl)cccc21`, the melting point stood at 163 °C and the ready biodegradability entry is on record as “not readily biodegradable”.
As a reminder, the boiling point is the temperature of boiling at a given pressure. As for `N#Cc1cccs1`, the boiling point was 192 °C.
`CC1(C)CC[C@]2(C(=O)O)[C@H](O)C[C@]3(C)C(=CC[C@@H]4[C@@]5(C)CC[C@H](O)[C@@](C)(C=O)[C@@H]5CC[C@]43C)[C@@H]2C1` had a melting point of 294 °C.
Take `CCCN(CCC)c1c([N+](=O)[O-])cc(S(N)(=O)=O)cc1[N+](=O)[O-]`: the log10 Koc (L/kg) was 3.4, the melting point was determined as 141 °C and the ready biodegradability result is on record as “not readily biodegradable”.
In the case of `CN(C)c1ccc(C2(c3ccc(N(C)C)cc3)OC(=O)c3cc(N(C)C)ccc32)cc1`, the ready biodegradability entry is “not readily biodegradable”.
`O=C1CN=C(c2ccccc2)c2cc(Cl)ccc2N1CC1CC1`: the melting point was 146 °C.
As for `Cc1ccc2nccnc2c1`, the boiling point was determined as 249 °C and the melting point was determined as 218 °C.
The molecule `Cc1c(C)c([N+](=O)[O-])c(C(C)(C)C)c([N+](=O)[O-])c1C` yielded a melting point of 136 °C.
On the same count and under the same terms, the result for `COc1cc2c(c(OC)c1OC)-c1ccc(SC)c(=O)cc1[C@@H](NC(C)=O)CC2` reads 193 °C.
With `COC(=O)CC(C)=O`, the boiling point was 172 °C, the log10 vapour pressure (mmHg) is -0.0496 and the ready biodegradability result is “readily biodegradable”.
In the case of `CCC(C)=C(C)C(C)=O`, the boiling point amounted to 158 °C.
`c1ccc2c(c1)OCCOCCOc1ccccc1OCCOCCO2` registered a melting point of 163 °C.
Molecule `COc1ccc(NC(N)=O)cc1Cl` showed a log10 Koc (L/kg) of 2.
In the case of `CCC(C)C(C)(C)C(C)C` (configuration not stated), the boiling point is 165 °C.
As to `O=C(O)CCCCCCCCCCCCCCCCCCC(=O)O`, the melting point came out at 126 °C.
The same measure, in the same setting: then `COc1ccccc1OC(C)=O`, with 31.5 °C.
On the same count and under the same terms, the result for `OCCc1ccc2ccccc2n1` reads 103 °C.
Molecule `O=C1c2ccccc2C(=O)c2c1cccc2[N+](=O)[O-]` displayed a log10 vapour pressure (mmHg) of -8.4 and a melting point of 232 °C.
With `CCC1=C(C[C@@H]2NCCc3cc(OC)c(OC)cc32)C[C@H]2c3cc(OC)c(OC)cc3CCN2C1`, the melting point worked out at 95 °C.
As for `CC(=O)OC[C@H]1O[C@@H](n2ncc(=O)[nH]c2=O)[C@H](OC(C)=O)[C@@H]1OC(C)=O`, the melting point came to 100 °C.
Take `ClC(Cl)=C(Cl)C(Cl)=C(Cl)Cl`: the boiling point amounted to 215 °C, the log10 Henry constant (atm·m³/mol) is -1.99, the log10 vapour pressure (mmHg) is -0.658 and the melting point is -21 °C. Further, the ready biodegradability entry is reported as “not readily biodegradable”.
Turning to `CC(=O)Nc1ccc(Br)cc1`, the log10 Koc (L/kg) amounted to 1.95.
In turn, `Nc1nc(=O)[nH]cc1F` yielded a melting point of 296 °C.
Regarding `CCCC(CC)C1(CC)C(=O)NC(=O)NC1=O` (configuration not stated), the melting point turned out to be 122 °C.
For `CC(C)=CC(=O)NS(=O)(=O)c1ccc(N)cc1`, the melting point stood at 184 °C.
On the same count and under the same terms, then `Cc1cccc2cc3c(ccc4ccccc43)cc12`, with 156 °C; and `CCN(CC)CCOC(=O)C(c1ccccc1)c1ccccc1`, with 114 °C.
For the molecule `C[Si]1(C)O[Si](C)(C)O[Si](C)(C)O[Si](C)(C)O[Si](C)(C)O[Si](C)(C)O[Si](C)(C)O1`, the log10 vapour pressure (mmHg) was -1.95 and the melting point was -26 °C.
`O=[N+]([O-])c1ccc(Cl)c(C(F)(F)F)c1`: the boiling point was 232 °C and the melting point is 22 °C.
For `Cc1c(NC(=O)c2cccnc2)c(=O)n(-c2ccccc2)n1C`, the melting point amounted to 253 °C.
Molecule `COC(=O)CC(O)(CC(=O)OC)C(=O)OC` displayed a boiling point of 285 °C and a melting point of 79.3 °C.
As for `Clc1cccc(Br)c1`, the boiling point worked out at 196 °C and the melting point is -21.5 °C.
`CCCC(O)CCC` showed a boiling point of 156 °C, a log10 vapour pressure (mmHg) of -0.0048 and a melting point of -41.2 °C.
Molecule `CCCCC=CC=O` returned a boiling point of 166 °C.
The molecule `CC=Cc1cccc(OC)c1O` came in with a boiling point of 268 °C and a melting point of 81 °C.
In turn, `CN(CC(=O)N1CCOCC1)Cc1c(Cl)cccc1NC(=O)c1ccccc1` displayed a melting point of 123 °C.
`ClC(C(Cl)(Cl)Cl)C(Cl)(Cl)Cl` yielded a boiling point of 249 °C and a melting point of 11 °C.
The molecule `C#CCCC(=O)O` came in with a melting point of 57.7 °C.
In turn, `OC(C(F)(F)F)C(F)(F)F` registered a boiling point of 59 °C, a log10 Henry constant (atm·m³/mol) of -4.37, a log10 vapour pressure (mmHg) of 2.2 and a melting point of -4 °C. Moreover, the ready biodegradability entry is “not readily biodegradable”.
`OC(O)C(Cl)(Cl)Cl` returned a boiling point of 98 °C, a log10 vapour pressure (mmHg) of 1.18 and a melting point of 57 °C.
As to `CC(C)C[C@@H](NC(=O)[C@@H](O)[C@H](N)Cc1ccccc1)C(=O)O`, the melting point was 234 °C.
On the same count and under the same terms, then `COc1ccccc1N=Nc1ccccc1`, with 41 °C.
As for `BrCc1ccc2ccccc2c1`, the melting point is 56 °C.
`O=C(CO)[C@@H](O)[C@H](O)[C@@H](O)CO` returned a melting point of 165 °C.
`C[Si]1(C)O[Si](C)(C)O[Si](C)(C)O[Si](C)(C)O1` registered a boiling point of 176 °C, a log10 Henry constant (atm·m³/mol) of 1.08, a log10 vapour pressure (mmHg) of 0.0212 and a melting point of 17.5 °C.
On to `CC1(C)[C@H]2CC[C@]1(C)[C@H](O)C2`, for which the boiling point came out at 210 °C.
Molecule `O=C1C=C(Nc2ccccc2)C(=O)c2ccccc21` came in with a melting point of 193 °C.
The same measure, in the same setting: the result for `CCCCC(C(N)=O)n1nc2ccccc2n1` (configuration not stated) reads 102 °C; that for `O=S1CCC1`, 31.5 °C.
In the case of `Cc1ccc(NC(=O)N(C)C)cc1Cl`, the log10 Koc (L/kg) turned out to be 2.02, the log10 vapour pressure (mmHg) is -7.44, the melting point came out at 148 °C and the ready biodegradability result is reported as “not readily biodegradable”.
`O=[N+]([O-])C(F)(F)F` showed a log10 vapour pressure (mmHg) of 3.85.
For `C=Cc1cccc([N+](=O)[O-])c1`, the melting point is -10 °C and the ready biodegradability entry was “not readily biodegradable”.
In turn, `C1=CCCCCC1` displayed a boiling point of 115 °C and a melting point of -56 °C.
The like results for `O=C(Cl)c1ccccc1Br` were, in that order, 243 °C and 11 °C.
In turn, `O=C1CCOc2ccccc21` gave a melting point of 36.5 °C.
As for `CC1CN1` (configuration not stated), the boiling point was 67 °C, the log10 vapour pressure (mmHg) was 2.15 and the melting point was -65 °C.
